Data as given in patent US9802902B2, “Antifungal compound” (priority 2012, dated 2017).

Legend:
C. albicans keratitis = assay: Contact lens-associated C. albicans keratitis model in mouse; format: in vivo; conditions: 1000 μg/mL topical eye drops; for corneal counts of C. albicans: 6 eyeballs homogenized; for clinical score (slit lamp, grade 0-4): after treatment, ± standard deviation
Text: 8-week-old adult C57BL/6 mice (18-22 g) were used for animal studies. All mice eyes were examined for absence of ocular pathology before experiments were initiated. The experimental protocol was approved by the Institutional Animal Care and Use Committee of Biological Resource Centre, Agency for Science, Technology and Research (A*STAR), Singapore.
The black mouse keratitis model was established by employing contact lens biofilm infection, which is described as follows. The mice were anesthetized by ketamine (150 mg/kg) and xylazine ([…]) via intraperitoneal injection (I.P.). Additional topical anesthetic in the form of 0.5% tetracaine hydrochloride eye drops (Bausch & Lomb, Tampa, Fla.) was also administered.
A total of 45 mice were used in this study. A 1-mm filter paper disc moistened with 99% 1-heptanol (Sigma-Aldrich, Lausanne, Switzerland) was placed on the center of the cornea for 40 seconds. The corneal epithelium was traumatically wiped out and the eyes were rinsed with PBS to remove any remaining traces of 1-heptanol. A 2 mm-diameter punch from the contact lense with C. albicans biofilm was then placed on the denuded cornea surface. The contact lenses were kept inside the eyes by closing the eye lids with silk sutures. The C. albicans cells were grown on the eyeball 18 hours after inoculation; eye ulcer with a leathery, tough, raised surface was observed. A disease grading from 0 (no disease) to 4 (severe disease) was established for evaluating treatment efficacy (see Table 1 below). The mice were immune suppressed by subcutaneous injection of cyclophosphamide (Sigma-Aldrich, […]).
To investigate the potential application of these two compounds in fungi keratitis treatment, C. albicans keratitis model was established using mouse. The contact lenses with C. albicans biofilm were kept inside the mice eyes by closing the lids with silk sutures. 18 hours after inoculation, the C. albicans cells were grown on the eyeball. Eye ulcer with a leathery, tough, raised surface was observed. The animals were randomly treated with 5 topical eye drop solutions: saline solution (control), 1000 μg/mL of PIM-45, 1000 μg/mL of IBN-1, 1000 μg/mL of amphotericin B, and 1000 μg/mL of fluconazole. Eye drops (20 μl each) were administered to the mice every 5 minutes during the first hour and every 30 minutes during the next 7 hours. After a pause of 16 hours, eye drops were administered at hourly intervals for another 8 hours. All mice were sacrificed 16 hours after the administration of the last eye drop. The treated eyeballs were collected immediately; three eyeballs from each group were collected for histology, and the remaining 6 eyeballs were homogenized for quantitative fungal recovery study. The fixed eyeballs were embedded in paraffin, sectioned and stained with Grocott's methenamine silver by standard protocol.

[1] = test system: C. albicans biofilms supported on contact lenses; assay: Biofilm susceptibility (in vitro keratitis model treatment); format: cell-based, Candida albicans
Protocol: The contact lenses were washed with PBS and immersed in YM broth overnight before they were punched into smaller pieces of 2 mm in diameter. To grow C. albicans biofilms, the lenses were placed in 6-well tissue culture plates with 4 mL of yeast suspension (10^7 CFU/mL) and incubated for 3 hours at 22° C. The contact lenses were gently washed with PBS to remove non-adherent yeast cells and immersed in YM broth for 48 hours at 22° C. with shaking at 100 rpm. Biofilms were quantified using direct plate counting. The yeast cells on contact lens were detached and dispersed in PBS by ultrasonication for 3 minutes. After making 10-fold dilutions, 20-μL sampling aliquots were plated on solid Lysogeny broth (LB) plate and incubated at 22° C. for 48 hours before the colony number was counted for determination of surviving CFU. Data from triplicate plate counts were averaged.
The C. albicans biofilms supported on contact lenses were transferred to fungicidal agent-containing PBS, and incubated at 22° C. for 24 hours. The biofilms were ultrasonicated for 3 minutes, and then serially diluted in PBS. The viable yeast cells were enumerated as described above.

## C[C@@H]1[C@H](O)[C@@H](C)/C=C/C=C/C=C/C=C/C=C/C=C/C=C/[C@H](O[C@@H]2O[C@H](C)[C@@H](O)[C@H](N)[C@@H]2O)C[C@@H]2O[C@](O)(C[C@@H](O)C[C@@H](O)[C@H](O)CC[C@@H](O)C[C@@H](O)CC(=O)O[C@H]1C)C[C@H](O)[C@H]2C(=O)O [amphotericin B]
C. albicans keratitis
  hyphal invasion into cornea (histology): reduced the maximal depth of hyphal invasion into cornea
  corneal counts of C. albicans: 3.3 lg CFU/eye
  clinical score (slit lamp, grade 0-4): 2.2±0.4
[1]; C. albicans biofilm on contact lens, PBS, 22° C., 24 hours
  effective concentration in killing biofilm-grown yeast cells: 250 ppm

## OC(Cn1cncn1)(Cn1cncn1)c1ccc(F)cc1F [fluconazole]
C. albicans keratitis
  hyphal invasion into cornea (histology): fungal hyphae extended through the epithelium and into the anterior stroma
  corneal counts of C. albicans: 5.1 lg CFU/eye
  clinical score (slit lamp, grade 0-4): 3.5±0.5
[1]; at 250 ppm
  destruction of C. albicans biofilm: only slightly destroyed
